Where two headings read alike, the source gives them in different places.
Experiments:
[1] = tested on: diamondback moth (Plutella xylostella); assay: Test Example 1: spray of test liquid on cabbage plant, control efficacy against diamondback moth larvae; format: in vivo; conditions: 120 h, active ingredient concentration 500 ppm, 20 ml per cup sprayed on cabbage, 10 third-instar larvae, counted after 5 days
[2] = tested on: summer fruit tortrix (Adoxophyes orana); assay: Test Example 2: artificial feed irrigated with test dilution, mortality of summer fruit tortrix larvae; format: in vivo; conditions: 168 h
Experimental: The formulation of the present compound (79) obtained according to Formulation Example 5 was diluted with water so as to have an active ingredient concentration of 2,500 ppm. Thus, a test dilution was prepared.
The bottom of a polyethylene cup having a diameter of 5.5 cm was covered with a filter paper having the same diameter. Artificial feed (Silkmate 2S; Nihon Nosan Kogyo K.K.) sliced in a thickness of 2 mm was placed on the filter paper, and 1 mL of the above-mentioned test dilution was irrigated on the artificial feed. After air-drying of the test dilution, a filter paper having a diameter of 5.5 cm was placed on the artificial feed, and 30 first-instar larvae of summer fruit tortrix (Adoxophyes orana) were released on this filter paper, after which the cup was closed with a lid. After 7 days, larvae of summer fruit tortrix were counted and the mortality was calculated by the following equation:
Mortality (t)=(Number of dead larvae/Number of released larvae)×100

Row | Structure (SMILES) | pest or weed control at 500 ppm [1] | mortality at 2500 ppm ([2]; active ingredient concentration 2,500 ppm, 1 mL on artificial feed, 30 first-instar larvae, counted after 7 days, read-out: Mortality) | mortality at 2500 ppm [2]
1 | N#Cc1ccc(C(=O)Nc2cccc(C3=NOC(c4cc(Cl)cc(Cl)c4)(C(F)(F)F)C3)c2)cc1 (centres unmarked) [present compound (5), N-(3-(5-(3,5-dichlorophenyl)-4,5-dihydro-5-trifluoromethyl-3-isoxazolyl)phenyl)-4-cyanobenzamide] | ≥ 80% | – | –
2 | Cc1c(NC(=O)CC(F)(F)F)cccc1C1=NOC(c2cc(Cl)cc(Cl)c2)(C(F)(F)F)C1 (centres unmarked) [present compound (72), N-(3-(5-(3,5-dichlorophenyl)-4,5-dihydro-5-trifluoromethyl-3-isoxazolyl)-2-methylphenyl)-3,3,3-trifluoropropionylamide] | ≥ 80% | – | –
3 | Cc1ccc(C2=NOC(c3cc(Cl)cc(Cl)c3)(C(F)(F)F)C2)cc1NC(=O)c1ccccc1F (centres unmarked) [present compound (13), N-(5-(5-(3,5-dichlorophenyl)-4,5-dihydro-5-trifluoromethyl-3-isoxazolyl)-2-methylphenyl)-2-fluorobenzamide] | ≥ 80% | – | –
4 | C/C=C/C(=O)Nc1cc(C2=NOC(c3cc(Cl)cc(Cl)c3)(C(F)(F)F)C2)ccc1C (centres unmarked) [present compound (48), N-(5-(5-(3,5-dichlorophenyl)-4,5-dihydro-5-trifluoromethyl-3-isoxazolyl)-2-methylphenyl)crotonamide] | ≥ 80% | – | –
5 | CCc1ccc(C2=NOC(c3cc(Cl)cc(Cl)c3)(C(F)(F)F)C2)cc1NC(=O)CC(F)(F)F (centres unmarked) [present compound (71), N-(3-(5-(3,5-dichlorophenyl)-4,5-dihydro-5-trifluoromethyl-3-isoxazolyl)-6-ethylphenyl)-3,3,3-trifluoropropionylamide] | ≥ 80% | – | –
6 | COc1ccc(C(=O)Nc2cc(C3=NOC(c4cc(Cl)cc(Cl)c4)(C(F)(F)F)C3)ccc2C)cc1 (centres unmarked) [present compound (30), N-(5-(5-(3,5-dichlorophenyl)-4,5-dihydro-5-trifluoromethyl-3-isoxazolyl)-2-methylphenyl)-4-methoxybenzamide] | ≥ 80% | – | –
7 | Cc1ccc(C2=NOC(c3cc(Cl)cc(Cl)c3)(C(F)(F)F)C2)cc1NC(=O)c1cccc(Cl)c1 (centres unmarked) [present compound (17), N-(5-(5-(3,5-dichlorophenyl)-4,5-dihydro-5-trifluoromethyl-3-isoxazolyl)-2-methylphenyl)-3-chlorobenzamide] | ≥ 80% | – | –
8 | Cc1ccc(C2=NOC(c3cc(Cl)cc(Cl)c3)(C(F)(F)F)C2)cc1NC(=O)c1ccc(C(F)(F)F)cc1 (centres unmarked) [present compound (31), N-(5-(5-(3,5-dichlorophenyl)-4,5-dihydro-5-trifluoromethyl-3-isoxazolyl)-2-methylphenyl)-4-trifluoromethylbenzamide] | ≥ 80% | – | –
9 | COc1ccc(C2=NOC(c3cc(Cl)cc(Cl)c3)(C(F)(F)F)C2)cc1NC(=O)CC(F)(F)F (centres unmarked) [present compound (78), N-(5-(5-(3,5-dichlorophenyl)-4,5-dihydro-5-trifluoromethyl-3-isoxazolyl)-2-methoxyphenyl)-3,3,3-trifluoropropionylamide] | ≥ 80% | – | –
10 | COC(=O)NNc1cc(C2=NOC(C)(c3ccccc3)C2)ccc1Cl (centres unmarked) [compound number 1-2, reference compound] | 0% | 0% | –
11 | COC(=O)Nc1cc(C2=NOC(c3cc(Cl)cc(Cl)c3)(C(F)(F)F)C2)ccc1Cl (centres unmarked) [present compound (79), N-(5-(5-(3,5-dichlorophenyl)-4,5-dihydro-5-trifluoromethyl-3-isoxazolyl)-2-chlorophenyl)-O-methylcarbamate] | – | – | ≥ 80%
12 | Cc1ccc(C2=NOC(c3cc(Cl)cc(Cl)c3)(C(F)(F)F)C2)cc1NC(=O)N(C)C (centres unmarked) [present compound (57), 3-(5-(5-(3,5-dichlorophenyl)-4,5-dihydro-5-trifluoromethyl-3-isoxazolyl)-2-methylphenyl)-1,1-dimethylurea] | ≥ 80% | – | –
13 | Cc1ccc(C2=NOC(c3cc(Cl)cc(Cl)c3)(C(F)(F)F)C2)cc1NC(=O)OCC(C)C (centres unmarked) [present compound (64), N-(5-(5-(3,5-dichlorophenyl)-4,5-dihydro-5-trifluoromethyl-3-isoxazolyl)-2-methylphenyl)-O-isobutylcarbamate] | ≥ 80% | – | –
14 | CCOC(=O)Nc1cc(C2=NOC(c3cc(Cl)cc(Cl)c3)(C(F)(F)F)C2)ccc1C (centres unmarked) [present compound (60), N-(5-(5-(3,5-dichlorophenyl)-4,5-dihydro-5-trifluoromethyl-3-isoxazolyl)-2-methylphenyl)-O-ethylcarbamate] | ≥ 80% | – | –
15 | O=C(Nc1cccc(C2=NOC(c3cc(Cl)cc(Cl)c3)(C(F)(F)F)C2)c1)c1cccnc1Cl (centres unmarked) [present compound (7), N-(3-(5-(3,5-dichlorophenyl)-4,5-dihydro-5-trifluoromethyl-3-isoxazolyl)phenyl)-2-chloronicotinamide] | ≥ 80% | – | –
16 | Cc1ccc(C2=NOC(c3cc(Cl)cc(Cl)c3)(C(F)(F)F)C2)cc1NC(=O)c1ccc(F)cc1 (centres unmarked) [present compound (15), N-(5-(5-(3,5-dichlorophenyl)-4,5-dihydro-5-trifluoromethyl-3-isoxazolyl)-2-methylphenyl)-4-fluorobenzamide] | ≥ 80% | – | –

Source: patent publication US20100137372A1, “ISOXAZOLINE COMPOUNDS AND THEIR USE IN PEST CONTROL” (priority 2007, published 2010)
